Test results published in paper PMC6199744, “Development of Chemical Proteomics for the Folateome and Analysis of the Kinetoplastid Folateome” (ACS Infectious Diseases, 2018).
Read-outs that look alike come from different tables or passages of the source.

Key:
Assay type in all cases: binding
[1] = molecular target: T1, HeLa cell extract proteins (Homo sapiens, UniProt O15427)
T1 construct: endogenous in cells; host or cells: HeLa cell extract
T1 sequence (O15427 1-465): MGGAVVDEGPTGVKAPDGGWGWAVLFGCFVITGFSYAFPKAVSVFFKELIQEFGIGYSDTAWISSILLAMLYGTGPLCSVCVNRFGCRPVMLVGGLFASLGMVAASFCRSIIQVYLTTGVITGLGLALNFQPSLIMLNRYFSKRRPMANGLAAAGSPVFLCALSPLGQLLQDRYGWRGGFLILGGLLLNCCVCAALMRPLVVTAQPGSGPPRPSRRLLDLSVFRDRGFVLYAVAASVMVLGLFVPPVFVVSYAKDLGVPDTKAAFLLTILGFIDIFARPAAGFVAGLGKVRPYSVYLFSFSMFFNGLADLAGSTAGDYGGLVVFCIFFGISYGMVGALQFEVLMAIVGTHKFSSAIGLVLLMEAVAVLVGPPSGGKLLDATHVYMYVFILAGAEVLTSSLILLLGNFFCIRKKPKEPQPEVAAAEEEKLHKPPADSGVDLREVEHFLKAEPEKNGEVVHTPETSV

[2] = molecular target: T2, HeLa cell extract proteins (Homo sapiens, UniProt P22102)
T2 construct: endogenous in cells; host or cells: HeLa cell extract
T2 sequence (P22102 1-1010): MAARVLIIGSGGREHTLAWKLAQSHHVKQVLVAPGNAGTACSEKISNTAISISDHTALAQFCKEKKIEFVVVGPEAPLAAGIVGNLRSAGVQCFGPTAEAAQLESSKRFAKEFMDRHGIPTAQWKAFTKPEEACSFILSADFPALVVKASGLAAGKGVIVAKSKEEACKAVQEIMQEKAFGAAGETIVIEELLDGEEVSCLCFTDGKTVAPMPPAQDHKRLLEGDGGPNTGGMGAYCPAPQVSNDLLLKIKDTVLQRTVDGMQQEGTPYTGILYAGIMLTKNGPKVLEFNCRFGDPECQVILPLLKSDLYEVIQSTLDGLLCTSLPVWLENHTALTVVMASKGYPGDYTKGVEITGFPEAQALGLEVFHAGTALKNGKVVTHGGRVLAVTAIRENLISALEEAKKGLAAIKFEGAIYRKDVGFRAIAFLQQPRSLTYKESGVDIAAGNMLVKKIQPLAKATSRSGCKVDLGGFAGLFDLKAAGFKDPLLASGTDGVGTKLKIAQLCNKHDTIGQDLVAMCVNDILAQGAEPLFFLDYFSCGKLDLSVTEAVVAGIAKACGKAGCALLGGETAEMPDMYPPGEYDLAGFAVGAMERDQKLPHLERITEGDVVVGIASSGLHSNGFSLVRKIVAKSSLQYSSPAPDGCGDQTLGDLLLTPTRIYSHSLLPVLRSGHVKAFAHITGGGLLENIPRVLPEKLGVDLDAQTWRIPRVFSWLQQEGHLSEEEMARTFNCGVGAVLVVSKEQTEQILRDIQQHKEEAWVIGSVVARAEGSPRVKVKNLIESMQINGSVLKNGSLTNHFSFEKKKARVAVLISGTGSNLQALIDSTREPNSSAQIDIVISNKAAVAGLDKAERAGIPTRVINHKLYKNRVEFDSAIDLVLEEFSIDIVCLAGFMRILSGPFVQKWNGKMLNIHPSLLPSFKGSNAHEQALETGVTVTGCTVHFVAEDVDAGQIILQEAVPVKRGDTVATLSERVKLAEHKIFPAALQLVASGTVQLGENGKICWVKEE

[3] = molecular target: T3, HeLa cell extract proteins (Homo sapiens, UniProt P28070)
T3 construct: endogenous in cells; host or cells: HeLa cell extract

[4] = molecular target: T4, HeLa cell extract proteins (Homo sapiens, UniProt Q02790)
T4 construct: endogenous in cells; host or cells: HeLa cell extract
T4 sequence (Q02790 1-459): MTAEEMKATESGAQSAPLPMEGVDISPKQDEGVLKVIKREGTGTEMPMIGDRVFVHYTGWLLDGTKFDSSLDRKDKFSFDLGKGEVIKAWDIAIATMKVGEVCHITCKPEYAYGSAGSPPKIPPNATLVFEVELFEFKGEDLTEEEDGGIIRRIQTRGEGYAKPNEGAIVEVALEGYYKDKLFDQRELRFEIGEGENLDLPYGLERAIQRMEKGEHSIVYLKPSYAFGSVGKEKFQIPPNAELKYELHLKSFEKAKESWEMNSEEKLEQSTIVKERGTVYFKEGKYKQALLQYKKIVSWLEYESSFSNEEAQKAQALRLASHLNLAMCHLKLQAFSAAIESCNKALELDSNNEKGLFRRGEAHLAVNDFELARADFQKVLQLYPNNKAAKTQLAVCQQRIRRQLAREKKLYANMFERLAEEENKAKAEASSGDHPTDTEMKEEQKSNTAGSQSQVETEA

[5] = molecular target: T5, HeLa cell extract proteins (Homo sapiens, UniProt Q96CW5)
T5 construct: endogenous in cells; host or cells: HeLa cell extract

[6] = molecular target: T6, HeLa cell extract proteins (Homo sapiens, UniProt Q9UKU7)
T6 construct: endogenous in cells; host or cells: HeLa cell extract
T6 sequence (Q9UKU7 23-415): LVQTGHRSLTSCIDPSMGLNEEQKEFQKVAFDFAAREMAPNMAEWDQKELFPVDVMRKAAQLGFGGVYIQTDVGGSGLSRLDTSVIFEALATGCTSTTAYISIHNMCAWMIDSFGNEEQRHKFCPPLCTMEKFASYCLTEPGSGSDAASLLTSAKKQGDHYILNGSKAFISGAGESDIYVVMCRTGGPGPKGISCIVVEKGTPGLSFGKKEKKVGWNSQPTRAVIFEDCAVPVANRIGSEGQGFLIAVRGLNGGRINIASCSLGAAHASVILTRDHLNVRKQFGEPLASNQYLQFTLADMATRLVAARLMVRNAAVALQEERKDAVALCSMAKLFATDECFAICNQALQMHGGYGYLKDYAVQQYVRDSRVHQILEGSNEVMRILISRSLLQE

[7] = HeLa, protein FKBP4 (FK506-BINDING PROTEIN 4.)

T5 sequence (Q96CW5 whole entry): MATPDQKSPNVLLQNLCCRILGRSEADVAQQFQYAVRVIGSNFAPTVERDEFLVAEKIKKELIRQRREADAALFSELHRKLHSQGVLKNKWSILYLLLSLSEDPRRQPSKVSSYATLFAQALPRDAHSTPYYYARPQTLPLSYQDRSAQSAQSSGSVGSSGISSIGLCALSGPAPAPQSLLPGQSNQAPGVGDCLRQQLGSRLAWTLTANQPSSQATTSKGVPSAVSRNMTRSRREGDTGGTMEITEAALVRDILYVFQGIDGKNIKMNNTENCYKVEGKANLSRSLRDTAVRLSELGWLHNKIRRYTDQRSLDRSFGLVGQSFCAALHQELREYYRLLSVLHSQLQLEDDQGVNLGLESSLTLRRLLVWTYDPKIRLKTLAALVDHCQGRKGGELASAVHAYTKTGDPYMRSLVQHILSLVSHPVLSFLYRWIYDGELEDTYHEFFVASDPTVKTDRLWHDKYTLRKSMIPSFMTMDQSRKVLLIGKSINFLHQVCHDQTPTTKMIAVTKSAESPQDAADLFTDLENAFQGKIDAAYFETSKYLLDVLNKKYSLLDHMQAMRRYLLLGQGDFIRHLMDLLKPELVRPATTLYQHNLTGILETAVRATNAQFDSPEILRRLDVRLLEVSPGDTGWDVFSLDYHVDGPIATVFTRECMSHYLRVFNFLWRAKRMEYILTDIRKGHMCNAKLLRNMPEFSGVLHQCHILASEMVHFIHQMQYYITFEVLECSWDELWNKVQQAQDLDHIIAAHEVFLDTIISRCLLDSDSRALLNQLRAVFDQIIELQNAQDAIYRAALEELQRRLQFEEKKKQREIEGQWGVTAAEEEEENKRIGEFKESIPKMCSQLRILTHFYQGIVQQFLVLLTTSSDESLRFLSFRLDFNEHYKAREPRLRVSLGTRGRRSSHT
T3 sequence (P28070 46-264): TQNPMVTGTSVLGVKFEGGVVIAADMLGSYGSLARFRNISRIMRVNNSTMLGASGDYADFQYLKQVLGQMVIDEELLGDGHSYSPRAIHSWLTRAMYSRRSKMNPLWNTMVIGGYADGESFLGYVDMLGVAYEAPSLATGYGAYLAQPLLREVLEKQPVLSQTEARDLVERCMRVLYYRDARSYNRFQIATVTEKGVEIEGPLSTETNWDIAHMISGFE

| Structure (SMILES) | fold changes relative to vehicle control ([1]; HeLa, protein SLC16A3) | fold changes relative to vehicle control ([2]; captured protein GART, HeLa) | fold changes relative to vehicle control ([3]; protein PSMB4, HeLa) | fold changes relative to vehicle control [4, 7] | fold changes relative to vehicle control ([5]; captured protein TUBGCP3, HeLa) | fold changes relative to vehicle control ([6]; protein ACAD8, HeLa) | fold changes relative to vehicle control [1] | fold changes relative to vehicle control [2] | fold changes relative to vehicle control [3] | fold changes relative to vehicle control [4] | fold changes relative to vehicle control [5] | fold changes relative to vehicle control [6] | fold changes relative to vehicle control ([2]; protein GART, HeLa) | fold changes relative to vehicle control ([3]; HeLa, protein PSMB4) | fold changes relative to vehicle control ([4]; HeLa, protein FKBP4) | fold changes relative to vehicle control ([5]; HeLa, protein TUBGCP3) | fold changes relative to vehicle control ([6]; HeLa, protein ACAD8) |
| --- | --- | --- | --- | --- | --- | --- | --- | --- | --- | --- | --- | --- | --- | --- | --- | --- | --- |
| Nc1nc2cccc(-c3ccccc3)c2n1Cc1ccc(Cl)c(Cl)c1 [compound 3] | 0.94 | 1.1 | 1.05 | 1.05 fold | 1.02 | 1.13 | – | – | – | – | – | – | – | – | – | – | – |
| Nc1nc2[nH]cc(CCc3ccc(C(=O)N[C@@H](CCC(=O)O)C(=O)O)cc3)c2c(=O)[nH]1 [PTX, pemetrexed] | – | – | – | – | – | – | 0.85 | 0.43 | 0.97 | 1.18 | 1.06 | 0.83 | – | – | – | – | – |
| Nc1nc2c(c(=O)[nH]1)N(C=O)C(CNc1ccc(C(=O)N[C@@H](CCC(=O)O)C(=O)O)cc1)CN2 (stereo partly drawn) [LEU, leucovorin] | 0.96 | – | – | – | – | – | – | – | – | – | – | – | 0.66 | 0.98 | 1.01 | 0.87 | 0.79 |
| CCCCCCOc1cccc(Cc2cnc(N)nc2N)c1 [compound 2] | 0.94 | 1.03 | 1.21 | 2.28 fold | 1.05 | 1.19 | – | – | – | – | – | – | – | – | – | – | – |
| NCCOCCOCC(=O)Nc1nc2ncc(CNc3ccc(C(=O)NC(CCC(=O)O)C(=O)O)cc3)nc2c(=O)[nH]1 (stereo not drawn) [compound 6] | 0.85 | – | – | – | – | – | – | – | – | – | – | – | 0.72 | 1.04 | 1.4 | 1 | 0.75 |
| CCCCCCOc1ccc(Cc2cnc(N)nc2N)cc1 [compound 1] | 0.83 | 0.94 | 1.12 | 1.48 fold | 0.94 | 1.11 | – | – | – | – | – | – | – | – | – | – | – |
| NCCCNc1ccc(C(=O)NC(CCC(=O)O)C(=O)O)cc1 (stereo not drawn) [compound 7] | 0.94 | – | – | – | – | – | – | – | – | – | – | – | 1.14 | 0.95 | 1.05 | 1.01 | 0.77 |
